Measurements: publication PMC6983056, “Carbazole Alkaloids from Clausena anisum-olens: Isolation, Characterization, and Anti-HIV Evaluation” (Molecules, 2019)
≈ marks a conversion by molar mass, not a printed value.

Tests used:
HIV-1 = test system: HIV-1; parameters: method as in PMID 16177980; conditions: cited from earlier work
[1] = test system: HIV replication in H9 lymphocytes; parameters: method as in PMID 31109016, PMID 10021911; conditions: cited from earlier work
[2] = test system: human immunodeficiency virus type-1 integrase; conditions: cited from earlier work
[3] = test system: HIV-1NL4-3 Nanoluc-sec virus; assay: microbe, parasite or virus in culture; format: cell-based; conditions: for EC50: Human immunodeficiency virus 1, NL43, MT4, 72 h, read-out: EC50 (μg/mL) NL4-3; for selective anti-HIV activity (class symbol printed in EC50 column): CC50/EC50 criterion
Description: MT4 cells (1 × 10^5 cells mL^−1) in 96 well plates were infected by HIV-1 NL4-3 Nanoluc-sec at a dose of 50 TCID50/well in the presence of each test compound at various concentrations. On Day 3 post-infection, supernatants were collected and assayed for luciferase activity using the Nano-Glo Luciferase Assay System (Promega, Madison, WI, USA). The antiviral potency was defined as the compound concentration that reduces the luciferase activity by 50% (EC50).

[4] = CytoTox-Glo cytotoxicity assay against MT4 cells; format: cell-based; conditions: human, 50% cytotoxic concentration, MT-4 cells, read-out: CC50 (μg/mL) MT4
Protocol: The cytotoxicity of the compound against MT4 cells was assessed using a CytoTox-Glo cytotoxicity assay (Promega, Madison, WI, USA). MT-4 cells were cultured in the presence of various concentrations of each test compound for 3 days, and the 50% cytotoxic concentration (CC50) causing a 50% reduction of cell viability was determined by following the manufacturer’s protocol.

[5] = test system: HIV replication in C8166 cells; parameters: method as in PMID 15771893; conditions: in vitro; cited from earlier work
HIV [6] = test system: HIV; parameters: method as in PMID 10757740; conditions: XTT-tetrazolium assay; cited from earlier work
HIV [7] = conditions: cited from earlier work

COc1ccc2c(c1)[nH]c1cc(OC)c(C=O)cc12 [3-formyl-2,7-dimethoxycarbazole]
anti-HIV-1 effects EC50 (HIV-1): 7.4 µg/mL
potential therapeutic index (PTI) (HIV-1): 8.0

COc1cc2c(c3cnccc13)c1ccccc1n2C [5-methoxy-7-methyl-7H-pyrido[4,3-c]carbazole]
therapeutic index (TI) ([1]; H9 lymphocytes): 503
EC50, inhibition of HIV replication in H9 lymphocytes [1]: 0.0054 µg/mL

Cc1cc2c(c3c1[nH]c1cc(Cl)c(O)cc13)C(=O)N(CCN(C)C)C2=O [8-Chloro-2-[2-(dimethylamino)ethyl]-9-hydroxy-5-methylpyrrolo[3,4-c]carbazole-1,3(2H,6H)-dione]
strand-transfer inhibitory activity [2]: potent strand-transfer inhibitory activity

Cc1cn([C@H]2C[C@H](N=[N+]=[N-])[C@@H](CO)O2)c(=O)[nH]c1=O [AZT, azidothymidine]
EC50 [3]: 0.0055 ± 0.0018 µg/mL (≈ 0.0206 µM)
CC50 at 3 days [4]: > 0.1 µg/mL

COC(=O)c1cc2c(cc1C)[nH]c1ccccc12 [Compound 1, 2-methyl-9H-carbazole-3-methyl carboxylate]
TI (CC50/EC50; SI in text) ([3]; CC50 MT4 / EC50 NL4-3): 7.1
EC50 [3]: 2.4 ± 0.53 µg/mL (≈ 10 µM)
CC50 at 3 days [4]: 17 ± 2.5 µg/mL (≈ 71 µM)

COc1ccc(OC)c2c1[nH]c1cc(O)c(C)cc12 [Compound 2, 5,8-dimethoxy-3-methyl-9H-carbazol-2-ol]
EC50 [3]: 3.7 µg/mL (≈ 14.4 µM)
CC50 at 3 days [4]: 15.2 ± 3.1 µg/mL (≈ 59.1 µM)

COc1ccc2c(c1)[nH]c1ccc(C(=O)O)cc12 [Compound 3, clausine N]
selective anti-HIV activity (class symbol printed in EC50 column) [3]: *- ^d (no selective anti-HIV activity (CC50/EC50 < 5))

CC1(C)C=Cc2c(c(C=O)cc3c2[nH]c2c(O)cccc23)O1 [Compound 4, heptazolicine]
selective anti-HIV activity (class symbol printed in EC50 column) [3]: *- ^d (no selective anti-HIV activity (CC50/EC50 < 5))

CC1(C)C=Cc2c(ccc3c2[nH]c2cc(O)c(C=O)cc23)O1 [Compound 5, clauszoline B]
selective anti-HIV activity (class symbol printed in EC50 column) [3]: *- ^d (no selective anti-HIV activity (CC50/EC50 < 5))

O=Cc1ccc2[nH]c3cc(O)ccc3c2c1 [Compound 7, 7-dihydroxy-9H-carbazole-3-carboxaldehyde]
EC50 [3]: > 25 µg/mL
CC50 at 3 days [4]: > 25 µg/mL

COc1ccc2[nH]c3c(O)cc(C=O)cc3c2c1 [Compound 8, clausine I]
selective anti-HIV activity (class symbol printed in EC50 column) [3]: *- ^d (no selective anti-HIV activity (CC50/EC50 < 5))

COc1cc2[nH]c3ccccc3c2cc1C=O [O-methylmukonal]
anti-HIV-1 effects EC50 (HIV-1): 2.7 µg/mL
potential therapeutic index (PTI) (HIV-1): 56.7

COc1ccc2c(c1)[nH]c1cc(OC)c(C(=O)O)cc12 [clauszoline-J]
anti-HIV-1 effects EC50 (HIV-1): 8.2 µg/mL
potential therapeutic index (PTI) (HIV-1): 1.6

COc1ccc2[nH]c3cc(O)c(C)cc3c2c1CC=C(C)C [glybomine B]
IC50, inhibition of HIV replication in C8166 cells [5]: 9.73 µg/mL

Cc1cc2c(cc1O)[nH]c1ccc3c(c12)C=CC(C)(C)O3 [glycoborinine]
IC50, inhibition of HIV replication in C8166 cells [5]: 4.47 µg/mL

CC(C)=CCc1cc2c(cc1O)[nH]c1ccc(C)cc12 [siamenol]
HIV-inhibitory activity EC50 (HIV [6]): 2.6 µg/mL
maximum protection (HIV [6]): 50–60%

C[C@@]1(C(=O)O)[C@@H](O)CC[C@]2(C)c3cc4c(cc3CC[C@@H]12)[nH]c1ccccc14 [xiamycin]
anti-HIV activity (HIV [7]): selective anti-HIV activity

clausine-O [Compound 6]
selective anti-HIV activity (class symbol printed in EC50 column) [3]: *- ^d (no selective anti-HIV activity (CC50/EC50 < 5))
